Laboratory results as given in PubChem BioAssay AID1259407 (Chemical Carcinogenesis Research Information System (CCRIS), 2018).
Calls of active or inactive are those of the source. How the calls were made is not given here.

Tested on: CCRIS mutagenicity, Ames/micronucleus/aberration tests
Assay: CCRIS mutagenicity studies
[1] = Test System: AMES SALMONELLA TYPHIMURIUM, Strain/Indicator: TA98, Metabolic Activation: NONE, Method: PREINCUBATION
[2] = Test System: AMES SALMONELLA TYPHIMURIUM, Strain/Indicator: TA98, Metabolic Activation: NONE, Method: STANDARD PLATE
[3] = Test System: AMES SALMONELLA TYPHIMURIUM, Strain/Indicator: TA98, Metabolic Activation: RAT, LIVER, S-9, AROCLOR 1254, Method: STANDARD PLATE
[4] = Test System: AMES SALMONELLA TYPHIMURIUM, Strain/Indicator: TA100, Metabolic Activation: NONE, Method: PREINCUBATION
[5] = Test System: AMES SALMONELLA TYPHIMURIUM, Strain/Indicator: TA100, Metabolic Activation: NONE, Method: STANDARD PLATE
[6] = Test System: AMES SALMONELLA TYPHIMURIUM, Strain/Indicator: TA100, Metabolic Activation: RAT, LIVER, S-9, AROCLOR 1254, Method: STANDARD PLATE
[7] = Test System: AMES SALMONELLA TYPHIMURIUM, Strain/Indicator: TA92, Metabolic Activation: NONE, Method: STANDARD PLATE

In the case of c1cnccn1, the mutagenic call (Test System: AMES SALMONELLA TYPHIMURIUM, Strain/Indicator: TA98, Metabolic Activation: HAMSTER, LIVER, S-9, AROCLOR 1254, Method: STANDARD PLATE) is reported as “inactive; negative”, the mutagenic call [1] is reported as “inactive; negative” and the mutagenic call [2] is reported as “inactive; negative”. For the same compound, the mutagenic call (Test System: AMES SALMONELLA TYPHIMURIUM, Strain/Indicator: TA98, Metabolic Activation: RAT, LIVER, S-9, AROCLOR 1254, Method: PREINCUBATION) was “inactive; negative”, the mutagenic call [3] was “inactive; negative” and the mutagenic call (Test System: AMES SALMONELLA TYPHIMURIUM, Strain/Indicator: TA98, Metabolic Activation: RAT, LIVER, S-9, PCB, Method: PREINCUBATION) was “inactive; negative”. The mutagenic call (Test System: AMES SALMONELLA TYPHIMURIUM, Strain/Indicator: TA100, Metabolic Activation: HAMSTER, LIVER, S-9, AROCLOR 1254, Method: STANDARD PLATE) was “inactive; negative”, the mutagenic call [4] was “inactive; negative” and the mutagenic call [5] was “inactive; negative”. For the same compound, the mutagenic call (Test System: AMES SALMONELLA TYPHIMURIUM, Strain/Indicator: TA100, Metabolic Activation: RAT, LIVER, S-9, AROCLOR 1254, Method: PREINCUBATION) was “inactive; negative”, the mutagenic call [6] was “inactive; negative” and the mutagenic call (Test System: AMES SALMONELLA TYPHIMURIUM, Strain/Indicator: TA100, Metabolic Activation: RAT, LIVER, S-9, PCB, Method: PREINCUBATION) was “inactive; negative”. The mutagenic call (Test System: AMES SALMONELLA TYPHIMURIUM, Strain/Indicator: TA102, Metabolic Activation: NONE, Method: PREINCUBATION) was “inactive; negative”, the mutagenic call (Test System: AMES SALMONELLA TYPHIMURIUM, Strain/Indicator: TA102, Metabolic Activation: RAT, LIVER, S-9, AROCLOR 1254, Method: PREINCUBATION) was “inactive; negative” and the mutagenic call (Test System: AMES SALMONELLA TYPHIMURIUM, Strain/Indicator: TA1535, Metabolic Activation: HAMSTER, LIVER, S-9, AROCLOR 1254, Method: STANDARD PLATE) was “inactive; negative”. The mutagenic call (Test System: AMES SALMONELLA TYPHIMURIUM, Strain/Indicator: TA1535, Metabolic Activation: NONE, Method: STANDARD PLATE) was “inactive; negative”, the mutagenic call (Test System: AMES SALMONELLA TYPHIMURIUM, Strain/Indicator: TA1535, Metabolic Activation: RAT, LIVER, S-9, AROCLOR 1254, Method: STANDARD PLATE) was “inactive; negative” and the mutagenic call (Test System: AMES SALMONELLA TYPHIMURIUM, Strain/Indicator: TA1537, Metabolic Activation: HAMSTER, LIVER, S-9, AROCLOR 1254, Method: STANDARD PLATE) was “inactive; negative”. The mutagenic call (Test System: AMES SALMONELLA TYPHIMURIUM, Strain/Indicator: TA1537, Metabolic Activation: NONE, Method: STANDARD PLATE) was “inactive; negative”, the mutagenic call (Test System: AMES SALMONELLA TYPHIMURIUM, Strain/Indicator: TA1537, Metabolic Activation: RAT, LIVER, S-9, AROCLOR 1254, Method: STANDARD PLATE) was “inactive; negative” and the mutagenic call (Test System: AMES SALMONELLA TYPHIMURIUM, Strain/Indicator: TA1538, Metabolic Activation: HAMSTER, LIVER, S-9, AROCLOR 1254, Method: STANDARD PLATE) was “inactive; negative”. For the same compound, the mutagenic call (Test System: AMES SALMONELLA TYPHIMURIUM, Strain/Indicator: TA1538, Metabolic Activation: NONE, Method: STANDARD PLATE) was “inactive; negative”, the mutagenic call (Test System: AMES SALMONELLA TYPHIMURIUM, Strain/Indicator: TA1538, Metabolic Activation: RAT, LIVER, S-9, AROCLOR 1254, Method: STANDARD PLATE) was “inactive; negative” and the mutagenic call (Test System: MOUSE LYMPHOMA, Strain/Indicator: L5178Y (TK+/TK-), Metabolic Activation: NONE, Method: SUSPENSION/PLATE) was “inactive; negative. reevaluation of results: negative”. The mutagenic call (Test System: MOUSE LYMPHOMA, Strain/Indicator: L5178Y (TK+/TK-), Metabolic Activation: RAT, LIVER, S-9, AROCLOR 1254, Method: SUSPENSION/PLATE) was “inactive; negative. reevaluation of results: negative”.

With C=C(C)C1C=C2C(COC(=O)CCCCCCCCCCCCCCCCC)=CC=C2C(C)=CC1 (stereo unspecified) the mutagenic call [2] was “inactive; negative”, the mutagenic call [3] was “inactive; negative” and the mutagenic call [5] was “active; positive”. For the same compound, the mutagenic call [6] was “active; positive”.

Cc1occc(=O)c1[O-].Cc1occc(=O)c1[O-].Cc1occc(=O)c1[O-].[Cr+3] was tested, and the mutagenic call [7] was “inactive; negative”, the mutagenic call [2] was “inactive; negative” and the mutagenic call [5] was “inactive; negative”. For the same compound, the mutagenic call (Test System: AMES SALMONELLA TYPHIMURIUM, Strain/Indicator: TA104, Metabolic Activation: NONE, Method: STANDARD PLATE) was “inactive; negative”.

CCCCCCCCCC[N+](C)(C)Cc1ccccc1 was tested, and the mutagenic call (Test System: AMES SALMONELLA TYPHIMURIUM, Strain/Indicator: TA97, Metabolic Activation: HAMSTER, LIVER, S-9, AROCLOR 1254 (10 OR 30%), Method: PREINCUBATION) was “inactive; negative”, the mutagenic call (Test System: AMES SALMONELLA TYPHIMURIUM, Strain/Indicator: TA97, Metabolic Activation: NONE, Method: PREINCUBATION) was “inactive; negative” and the mutagenic call (Test System: AMES SALMONELLA TYPHIMURIUM, Strain/Indicator: TA97, Metabolic Activation: RAT, LIVER, S-9, AROCLOR 1254 (10 OR 30%), Method: PREINCUBATION) was “inactive; negative”. The mutagenic call (Test System: AMES SALMONELLA TYPHIMURIUM, Strain/Indicator: TA98, Metabolic Activation: HAMSTER, LIVER, S-9, AROCLOR 1254 (10 OR 30%), Method: PREINCUBATION) was “inactive; negative”, the mutagenic call [1] was “inactive; negative” and the mutagenic call (Test System: AMES SALMONELLA TYPHIMURIUM, Strain/Indicator: TA98, Metabolic Activation: RAT, LIVER, S-9, AROCLOR 1254 (10 OR 30%), Method: PREINCUBATION) was “inactive; negative”. For the same compound, the mutagenic call (Test System: AMES SALMONELLA TYPHIMURIUM, Strain/Indicator: TA100, Metabolic Activation: HAMSTER, LIVER, S-9, AROCLOR 1254 (10 OR 30%), Method: PREINCUBATION) was “inactive; negative”, the mutagenic call [4] was “inactive; negative” and the mutagenic call (Test System: AMES SALMONELLA TYPHIMURIUM, Strain/Indicator: TA100, Metabolic Activation: RAT, LIVER, S-9, AROCLOR 1254 (10 OR 30%), Method: PREINCUBATION) was “inactive; negative”. For the same compound, the mutagenic call (Test System: AMES SALMONELLA TYPHIMURIUM, Strain/Indicator: TA1535, Metabolic Activation: HAMSTER, LIVER, S-9, AROCLOR 1254 (10 OR 30%), Method: PREINCUBATION) was “inactive; negative”, the mutagenic call (Test System: AMES SALMONELLA TYPHIMURIUM, Strain/Indicator: TA1535, Metabolic Activation: NONE, Method: PREINCUBATION) was “inactive; negative” and the mutagenic call (Test System: AMES SALMONELLA TYPHIMURIUM, Strain/Indicator: TA1535, Metabolic Activation: RAT, LIVER, S-9, AROCLOR 1254 (10 OR 30%), Method: PREINCUBATION) was “inactive; negative”.

In the case of O=[N+]([O-])c1ccc2c(ccc3c4ccccc4ccc23)c1, the mutagenic call (Test System: AMES SALMONELLA TYPHIMURIUM, Strain/Indicator: TA98(1,8-DNP6), Metabolic Activation: NONE) is reported as “active; positive”, the mutagenic call (Test System: AMES SALMONELLA TYPHIMURIUM, Strain/Indicator: TA98(1,8-DNP6), Metabolic Activation: RAT, LIVER, S-9, AROCLOR 1254) is reported as “active; positive” and the mutagenic call (Test System: AMES SALMONELLA TYPHIMURIUM, Strain/Indicator: TA98(NR), Metabolic Activation: NONE) is reported as “active; positive”. For the same compound, the mutagenic call (Test System: AMES SALMONELLA TYPHIMURIUM, Strain/Indicator: TA98(NR), Metabolic Activation: RAT, LIVER, S-9, AROCLOR 1254) was “active; positive”, the mutagenic call (Test System: AMES SALMONELLA TYPHIMURIUM, Strain/Indicator: TA98, Metabolic Activation: NONE) was “active; positive” and the mutagenic call (Test System: AMES SALMONELLA TYPHIMURIUM, Strain/Indicator: TA98, Metabolic Activation: RAT, LIVER, S-9, AROCLOR 1254) was “active; positive”. For the same compound, the mutagenic call (Test System: AMES SALMONELLA TYPHIMURIUM, Strain/Indicator: TA100(NR), Metabolic Activation: NONE) was “active; positive”, the mutagenic call (Test System: AMES SALMONELLA TYPHIMURIUM, Strain/Indicator: TA100(NR), Metabolic Activation: RAT, LIVER, S-9, AROCLOR 1254) was “active; positive” and the mutagenic call (Test System: AMES SALMONELLA TYPHIMURIUM, Strain/Indicator: TA100, Metabolic Activation: NONE) was “active; positive”. The mutagenic call (Test System: AMES SALMONELLA TYPHIMURIUM, Strain/Indicator: TA100, Metabolic Activation: RAT, LIVER, S-9, AROCLOR 1254) was “active; positive”, the mutagenic call (Test System: AMES SALMONELLA TYPHIMURIUM, Strain/Indicator: TA104, Metabolic Activation: NONE) was “active; positive” and the mutagenic call (Test System: AMES SALMONELLA TYPHIMURIUM, Strain/Indicator: TA104, Metabolic Activation: RAT, LIVER, S-9, AROCLOR 1254) was “active; positive”.

C=CCc1ccccc1N.[Cl-].[Cl-].[Pd+2] was tested, and the mutagenic call [7] was “inactive; negative”, the mutagenic call [2] was “inactive; negative” and the mutagenic call [5] was “active; positive”. The mutagenic call (Test System: AMES SALMONELLA TYPHIMURIUM, Strain/Indicator: TA2410, Metabolic Activation: NONE, Method: STANDARD PLATE) was “active; positive”.
